Measured values as given in patent US20040204383A1, “Lysophosphatidic acid analogs and inhibition of neointima formation” (priority 2003, published 2004).
“Also recorded” adds a separate entry of the source. Each block holds one molecule with its values, some of them ahead of it.

What was measured:
rat carotid arteries = assay: Induction of neointima formation in rat carotid artery by topical application; type: in vivo
Text: Briefly, the right carotid artery of anesthetized adult male Sprague-Dawley rats (250-300 g) was surgically exposed. The caudal origin of the common carotid artery was ligated using a vessel clip, followed by exposure and ligation of the internal carotid artery above the bifurcation. The external carotid artery was exposed, and a polyethylene catheter was inserted such that it never reached the common carotid artery, thereby avoiding mechanical injury to the vessel. The clip occluding the common carotid artery was temporarily released, and the vessel was rinsed with a retrograde injection of 500 μl physiological saline to remove residual blood. The vessel was again clipped, and 100 μl of treatment solution was injected. After 60 min of incubation, the cannula was withdrawn, the external carotid artery was ligated, and blood flow was restored. Animals were allowed to recover and were killed 7-56 d later by intracardiac perfusion of 10% buffered formaldehyde (pH 7.4). The common carotid artery from the […] to the bifurcation was dissected, embedded in paraffin, and processed for histological analysis. Five μm-thick sections were cut and stained with hematoxylin and eosin or Masson's trichrome stain. Intima to media ratios were quantified using an image analysis system (Scion Image CMS-800).

PPARγ = target: T1, PPARγ (Homo sapiens, UniProt P37231); assay: PPRE-Acox-Rluc reporter gene assay in CV-1 cells transfected with PPARγ; type: cell-based; settings: for activation of the PPRE-Acox-Rluc reporter: 10 μM, 20 h, CV-1 cells (FIG. 6C)
T1 construct: expressed in transfected cells; host or cells: CV-1 cells, transient transfection with LipofectAMINE 2000
T1 sequence (P37231 1-505): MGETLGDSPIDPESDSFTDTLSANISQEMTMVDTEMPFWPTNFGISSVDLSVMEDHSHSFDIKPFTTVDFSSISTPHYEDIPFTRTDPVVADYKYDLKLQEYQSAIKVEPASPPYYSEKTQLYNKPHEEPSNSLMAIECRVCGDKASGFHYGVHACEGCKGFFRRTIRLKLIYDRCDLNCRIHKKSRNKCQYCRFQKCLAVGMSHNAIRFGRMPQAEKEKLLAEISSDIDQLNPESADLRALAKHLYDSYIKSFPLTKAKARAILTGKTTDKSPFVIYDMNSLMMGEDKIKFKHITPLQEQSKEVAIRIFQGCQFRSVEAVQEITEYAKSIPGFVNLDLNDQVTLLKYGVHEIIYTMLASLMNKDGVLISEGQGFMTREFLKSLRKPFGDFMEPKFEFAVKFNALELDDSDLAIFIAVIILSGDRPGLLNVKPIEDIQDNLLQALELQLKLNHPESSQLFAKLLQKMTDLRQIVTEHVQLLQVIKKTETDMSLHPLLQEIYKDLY
T1 sequence (P19793 1-462 partner): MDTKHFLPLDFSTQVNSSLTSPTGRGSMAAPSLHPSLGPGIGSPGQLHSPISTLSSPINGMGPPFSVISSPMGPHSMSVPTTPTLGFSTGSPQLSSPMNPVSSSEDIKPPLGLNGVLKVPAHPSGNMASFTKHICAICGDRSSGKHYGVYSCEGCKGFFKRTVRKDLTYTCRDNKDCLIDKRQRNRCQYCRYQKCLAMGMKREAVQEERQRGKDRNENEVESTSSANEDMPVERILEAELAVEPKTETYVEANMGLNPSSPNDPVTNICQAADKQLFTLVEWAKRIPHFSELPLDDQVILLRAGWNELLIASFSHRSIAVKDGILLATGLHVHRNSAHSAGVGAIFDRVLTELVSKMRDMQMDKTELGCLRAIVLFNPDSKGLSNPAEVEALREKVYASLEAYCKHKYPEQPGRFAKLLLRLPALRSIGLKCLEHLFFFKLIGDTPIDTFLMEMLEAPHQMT
Description: CV-1 cells were plated in 96-well plates (5×10^3 cells per well) in DME supplemented with 10% FBS. […] Twenty four hours after transfection, cells were treated with 1% FBS-supplemented OptiMEMI™ (Invitrogen) containing DMSO or test compound (10 μM) in DMSO for 20 h. Luciferase and β-galactosidase activities were measured with the Steady-Glo® Luciferase Assay System (Promega) and the Galacto-Light Plus™ System (Applied Biosystems), respectively. Samples were run in quadruplicate, and the mean±SE were calculated. Data are representative of at least three independent transfections. Student's t test was used for null hypothesis testing, and P<0.05 was considered significant.

[1] = test system: CD36(−273)-Rluc reporter gene; assay: CD36(−273)-Rluc reporter gene (with PPRE) in CV-1 cells; type: cell-based; settings: 10 μM, CV-1 cells (FIG. 7E)
Description: Therefore, the investigators compared the unique in vivo neointima-eliciting lysophosphatidic acid structure-activity relationship with that of PPARγ using an in vitro assay that utilizes an acyl-coenzyme A oxidase-luciferase (PPRE-Acox-Rluc) reporter gene construct containing a peroxisome proliferator-activated receptor response element. CV-1 cells were plated in 96-well plates (5×10^3 cells per well) in DME supplemented with 10% FBS. The next day, the cells were transiently transfected with 125 ng of pGL3-PPRE-acyl-CoA oxidase (Acox)-renilla luciferase), or 125 ng pGL3-CD36(−273), or pGL3-CD36(−261), 62.5 ng of pcDNAI-PPARγ, and 12.5 ng of pSV-β-galactosidase (Promega) using LipofectAMINE™ 2000 (Invitrogen). Twenty four hours after transfection, cells were treated with 1% FBS-supplemented OptiMEMI™ (Invitrogen) containing DMSO or test compound (10 μM) in DMSO for 20 h. Luciferase and β-galactosidase activities were measured with the Steady-Glo® Luciferase Assay System (Promega) and the Galacto-Light Plus™ System (Applied Biosystems), respectively. Samples were run in quadruplicate, and the mean±SE were calculated. Data are representative of at least three independent transfections. Student's t test was used for null hypothesis testing, and P<0.05 was considered significant.

[2] = test system: vascular smooth muscle cells; assay: Phenotypic modulation and dedifferentiation of cultured VSMCs (morphology, hCAD mRNA); type: cell-based, rat
Description: Expression of lysophosphatidic acid-specific G protein-coupled plasma membrane receptors in rat carotid arteries was examined by RT-PCR as described earlier by Wang et al. (2002). To quantify heavy caldesmon mRNA, quantitative PCR was performed applying the real-time SYBR Green PCR method using a Sequence Detection System Model 7700 (Applied Biosystems) instrument. Rat heavy caldesmon and GAPDH (reference control mRNA)-specific primers were designed with Primer Express Software (Applied Biosystems), and forward and reverse primers were as follows: 5′-[…]-3′ (SEQ ID NO:1) and 5′-[…]-3′ (SEQ ID NO:2) for heavy caldesmon; 5′-[…]-3′ (SEQ ID NO:3) and 5′-[…]-3′ (SEQ ID NO:4) for GAPDH. Amplification reaction was performed with SYBR Green PCR Master Mix (Applied Biosystems) following the manufacturer's protocol. mRNA abundance calculation was based on Ct values as described previously (Wang et al., 2002). The expression level of heavy caldesmon mRNA was normalized to GAPDH mRNA. Each PCR reaction was performed at least three times, and the result was expressed as mean±SEM. Statistical comparison of mRNA expression was evaluated by ANOVA, and P<0.05 was considered statistically significant.
It has been reported that unsaturated lysophosphatidic acid species induced phenotypic modulation of cultured vascular smooth muscle cells (VSMCs). Because the neointimal response and PPARγ display a similar selectivity for unsaturated lysophosphatidic acid, that activation of PPARγ plays a role in the phenotypic dedifferentiation is hypothesized herein. This hypothesis was tested in a culture system in which IGF-1 maintains the differentiated spindle shape of vascular smooth muscle cells as indicated by high levels of heavy caldesmon (hCAD) mRNA expression.

[3] = 10 μM, rat carotid artery model (FIG. 3C)
[4] = 10 ng/ml, 2-wk period (FIG. 5B)

- activation of the PPRE-Acox-Rluc reporter (PPARγ): inactive
Molecule: 2,3-cyclic phosphatidic acid [cPA 18:1]
- neointima formation (rat carotid arteries; [3]): did not elicit detectable neointima
- neointima formation (rat carotid arteries; 10 μM, rat carotid artery model (FIG. 3C), listed as cPA): inactive

Molecule: 3-O-octadecenyl-glycerophosphate [3AGP]
- neointima formation (rat carotid arteries; [3]): modestly effective

Molecule: CCCCCCCCC=CCCCCCCCCOCC(O)COP(=O)(O)O (centres unmarked) [1AGP, 1-octadecenyl-glycerophosphate]
- neointima formation (rat carotid arteries; [3]): highly effective
- stimulation of CD36(−273)-Rluc reporter gene [1]: higher stimulation

Molecule: CCCCCCCCCCCCCCCCOCC(COP(=O)([O-])OCC[N+](C)(C)C)OC(=O)CCCCCCCC(=O)O (centres unmarked) [AZ-PC, 1-O-hexadecyl-2-azaleoyl-phosphatidylcholine]
- neointima formation (rat carotid arteries; after 2 weeks (FIG. 6B)): caused neointima formation

- inhibition of lysophosphatidic acid 20:4-induced PPRE-Acox-Rluc reporter gene expression (PPARγ; 10 μM (FIG. 6D)): abolished
Molecule: O=C(Nc1ccccc1)c1cc([N+](=O)[O-])ccc1Cl [GW9662]
- inhibition of neointima formation elicited by lysophosphatidic acid 20:4 (rat carotid arteries; 5 μM 30 min before and coapplied with 2.5 μM LPA 20:4): completely abolished neointima formation; also recorded: inhibited
- effect on vessels from animals treated with SOV-PC and saturated lysophosphatidic acid species (rat carotid arteries; FIG. 6B): had no effect
- inhibition of AZ-PC-induced neointima formation (rat carotid arteries; FIG. 6B): inhibited by GW9662
- inhibition of neointima formation in response to LPA 18:2 (rat carotid arteries; GW9662 pretreatment (FIG. 6B)): inhibited
- inhibition of neointima formation in response to minimally oxidized LDL (rat carotid arteries; GW9662 pretreatment (FIG. 6B)): inhibited
- inhibition of Rosi-induced lesion formation (rat carotid arteries; GW9662 pretreatment and coapplication (FIG. 6B)): fully blocked
- effect on LPA 20:4- and Rosi-induced flattened morphology of VSMCs ([2]; 200 nM GW9662): reversed this effect
- effect on hCAD mRNA expression ([2]; 200 nM pretreatment, quantitative RT-PCR (FIG. 8I)): caused a significant increase in hCAD mRNA expression
- effect on morphology of IGF-1- and LPA 20:0-treated VSMC cultures ([2]; 200 nM, 30 min pretreatment): did not affect the spindle-like morphology

Molecule: CCCCCCCCCCCCCCCCCC(=O)OCC(O)COP(=O)(O)O (centres unmarked) [LPA 18:0]
- neointima formation (rat carotid arteries; [3]): did not elicit detectable neointima

- activation of the PPRE-Acox-Rluc reporter (PPARγ): inactive
Molecule: CCCCCCCCCCCCC/C=C/[C@@H](O)[C@@H](N)COP(=O)(O)O [S1P, sphingosine 1-phosphate]

Molecule: CCCCCCCCCCCCCCCCCC(=O)OC[C@H](COP(=O)([O-])OCC[N+](C)(C)C)OC(=O)CCCC=O [SOV-PC, stearoyl-oxovaleryl phosphatidylcholine]
- neointima formation (rat carotid arteries; after 2 weeks (FIG. 6B)): failed to stimulate neointima formation

Molecule: CCCCCCCCCCCCCCCC(=O)O[C@H](COP(=O)(O)O)C(F)F [XY4, 1,1-difluorodeoxy-(2R)-palmitoyl-sn-glycero-3-phosphate]
- neointima formation (rat carotid arteries; 10 μM, 2-wk period (FIG. 5B)): showed neointima formation

Molecule: CCCCCCCCCCCCCCCC(=O)OC[C@@H](F)COP(=O)(O)O [XY8, 1-palmitoyl-(2R)-fluorodeoxy-sn-glycero-3-phosphate]
- neointima formation (rat carotid arteries; 10 μM, 2-wk period (FIG. 5B)): showed neointima formation

- activation of the PPRE-Acox-Rluc reporter (PPARγ): activated the reporter gene
Molecule: CCCCCCCCCCCCCCCCOC[C@@H](O)COP(=O)(O)O [hexadecyl-GP]

- activation of the PPRE-Acox-Rluc reporter (PPARγ): activated the reporter gene
Molecule: CCCCCCCCCCCCCCCCCCOC[C@@H](O)COP(=O)(O)O [octadecyl-GP]

Molecule: EGF: epidermal growth factor (NSDSECPLSHDGYCLHDGVCMYIEALDKYACNCVVGYIGERCQYRDLKWWELR; UniProt P01133 971-1023, looked up)
- neointima formation (rat carotid arteries; 50 ng/ml, 2-wk period (FIG. 5B)): failed to induce detectable neointima
- neointima formation (rat carotid arteries; 100 ng/ml (summary)): ineffective in inducing neointima formation

Molecule: LPA 18:1
- neointima formation (rat carotid arteries; 10 μM, 2-wk period (FIG. 5B)): showed neointima formation
- extent of neointima development, concentration dependence (rat carotid arteries; 2 wk after treatment (FIG. 4B)): concentration dependent up to 10 μM
- concentration at which neointima development reached statistical significance (rat carotid arteries; P<0.01, FIG. 4B): 5 µM

Molecule: PDGF
- neointima formation (rat carotid arteries; [4]): ineffective in inducing neointima formation; also recorded: failed to induce detectable neointima

Molecule: VEGF
- neointima formation (rat carotid arteries; [4]): ineffective in inducing neointima formation; also recorded: failed to induce detectable neointima

Molecule: dioctylglycerol pyrophosphate [DGPP]
- inhibition of lysophosphatidic acid 20:4-induced neointima formation (rat carotid arteries; FIG. 6A): modest inhibition

- effect of added albumin on compound-induced activation of the PPRE-Acox-Rluc reporter gene (PPARγ; albumin 0.04-4% wt/vol, concentration-dependent (FIG. 7G)): inhibited
- concentrations sufficient to cause significant activation of the reporter (PPARγ; dose-response (FIGS. 6E and F)): high nanomolar concentrations
- effect of added rat serum on compound-induced activation of the PPRE-Acox-Rluc reporter gene (PPARγ; rat serum 1-20% vol/vol, concentration-dependent (FIG. 7H)): inhibited
Molecule: lysophosphatidic acid
